# From patent US9358250B2, “Methods of using SCD1 antagonists” (Genentech, Inc., priority 2011, dated 2016)
# Tests used:
# HCT-15 = test: Cell viability, CellTiter-Glo; type: cell-based, human; settings: for IC50: Homo sapiens, HCT-15, 72 h; for cell proliferation, oleate / palmitate supplement: HCT15 cells
# Description: (§1) For SCD1 small molecule inhibitor experiment, cells were treated with indicated concentration of A37062 (Abbott compound 4c) or G02447171.1 (Daichii compound 24) in DMSO or DMSO alone for 48-72 hr. Cell viability was assessed with CellTiter-Glo at 72 hr post treatment (Promega). Activation of caspase 3 and caspase 7 was measured with the Caspase-Glo 3/7 assay kit at 48 hr after treatment (Promega). Values are presented as mean+/−SD of quadruplets. Data are representative of at least three independent experiments.
# (§2) To investigate the effect of SCD1 small molecule antagonists on cancer cell lines were treated with serially diluted A37062 for 72 hr, and […] cell viability was measured by CellTiter-Glo (Promega) as described above.
# (§3) To investigate the effect of additional SCD1 small molecule antagonists, HT29 and HCT15 were treated with serially diluted small molecule inhibitors RG1-14 and G02447171 (G7171) for 72 hr, and cell viability was measured by CellTiter-Glo (Promega). The specificity and selectivity of the SCD1 small molecule inhibitors was also evaluated.
# HT29 = test: Cell viability, CellTiter-Glo; type: cell-based, human; settings: for IC50: Homo sapiens, HT-29, 72 h; for cell proliferation, oleate / palmitate supplement: HT29 cells
# Description: as §1, §2, §3
# SCD1 [1] = molecular target: T1, SCD1 (Homo sapiens, UniProt O00767); settings: cited from earlier work
# T1 sequence (O00767 1-359): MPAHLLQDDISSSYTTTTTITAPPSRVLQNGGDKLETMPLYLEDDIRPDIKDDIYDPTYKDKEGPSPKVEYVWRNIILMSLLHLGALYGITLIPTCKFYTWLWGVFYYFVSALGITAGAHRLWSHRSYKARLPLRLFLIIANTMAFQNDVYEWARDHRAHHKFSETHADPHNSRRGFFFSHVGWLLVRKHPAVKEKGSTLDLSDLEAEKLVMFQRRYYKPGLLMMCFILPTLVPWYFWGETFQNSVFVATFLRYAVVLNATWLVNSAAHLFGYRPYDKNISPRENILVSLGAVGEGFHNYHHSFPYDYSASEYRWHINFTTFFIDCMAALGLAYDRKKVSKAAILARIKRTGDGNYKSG
# SCD1 [2] = molecular target: T1, SCD1; settings: at 10 μM; cited from earlier work
# [3] = 30 min incubation; cited from earlier work
# [4] = 30 min incubation; cited from earlier work; remark: listed apart in the source
# Δ5 desaturase = Δ5 desaturase (Homo sapiens, UniProt O60427); settings: cited from earlier work
# Δ5 desaturase, sequence (O60427 whole entry, stated change not applied): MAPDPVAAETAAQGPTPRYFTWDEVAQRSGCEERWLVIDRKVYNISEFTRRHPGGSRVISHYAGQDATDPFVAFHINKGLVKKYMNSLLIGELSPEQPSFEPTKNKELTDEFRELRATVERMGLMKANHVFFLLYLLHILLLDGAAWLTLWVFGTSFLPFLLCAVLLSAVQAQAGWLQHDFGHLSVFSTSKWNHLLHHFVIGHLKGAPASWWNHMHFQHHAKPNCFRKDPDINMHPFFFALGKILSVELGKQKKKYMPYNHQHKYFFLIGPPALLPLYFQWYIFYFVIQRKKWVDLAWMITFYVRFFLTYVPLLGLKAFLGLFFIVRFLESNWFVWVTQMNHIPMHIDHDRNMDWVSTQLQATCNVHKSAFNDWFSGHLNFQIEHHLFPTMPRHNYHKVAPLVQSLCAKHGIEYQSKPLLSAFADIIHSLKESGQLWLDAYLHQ
# Δ6 desaturase = molecular target: T2, Δ6 desaturase (Homo sapiens, UniProt O95864); settings: cited from earlier work
# T2 sequence (O95864 1-444): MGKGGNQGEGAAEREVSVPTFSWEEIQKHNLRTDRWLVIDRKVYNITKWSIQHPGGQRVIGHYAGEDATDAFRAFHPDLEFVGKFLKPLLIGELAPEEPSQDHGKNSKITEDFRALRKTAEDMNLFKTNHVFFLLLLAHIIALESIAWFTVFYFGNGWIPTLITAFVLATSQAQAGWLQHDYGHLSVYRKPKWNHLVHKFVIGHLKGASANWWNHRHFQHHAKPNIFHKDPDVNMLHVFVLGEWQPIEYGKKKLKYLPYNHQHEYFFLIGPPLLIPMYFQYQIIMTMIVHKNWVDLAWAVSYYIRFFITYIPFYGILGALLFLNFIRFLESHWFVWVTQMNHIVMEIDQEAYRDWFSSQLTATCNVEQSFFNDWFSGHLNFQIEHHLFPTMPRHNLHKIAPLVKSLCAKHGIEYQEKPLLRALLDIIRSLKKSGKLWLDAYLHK
SMILES,"IC50 (HCT-15; Experiment 1 HCT15, 72 hr)","IC50 (HCT-15; Experiment 2 HCT15, 72 hr)","IC50 (HT29; Experiment 1 HT29, 72 hr)","IC50 (HT29; Experiment 2 HT29, 72 hr)",other results
O=c1cc(N2CCN(Cc3cc(F)cc(F)c3O)CC2)nc[nH]1 [RG4],0.289 µM,0.244 µM,0.547 µM,0.346 µM,–
O=C(NCc1cccnc1)c1sc(N2CCN(Cc3ccc(F)cc3)C2=O)nc1C(F)(F)F [Compound 21],–,–,–,–,IC50 (SCD1 [1]): 0.042 µM
O=c1cc(N2CCN(Cc3cc(Br)cc(Br)c3O)CC2)nc[nH]1 [RG8],0.000784 µM,0.00414 µM,0.0187 µM,0.00813 µM,"cell proliferation, oleate / palmitate supplement (HCT-15): suppress cell proliferation in a fatty acid desaturation-dependent manner; cell proliferation, oleate / palmitate supplement (HT29): suppress cell proliferation in a fatty acid desaturation-dependent manner"
Cc1cccc(CN2CCN(c3cc(=O)[nH]cn3)CC2)c1O [RG11],0.148 µM,0.416 µM,0.243 µM,0.266 µM,–
Cc1nc(-n2ccc(OCc3ccc(F)cc3)cc2=O)sc1C(=O)NCc1ccc(Cl)nc1 [Compound 18],–,–,–,–,IC50 (SCD1 [1]): 0.05 µM
O=c1cc(N2CCN(Cc3cc(Cl)cc(Cl)c3O)CC2)nc[nH]1 [RG1],0.00584 µM,0.0134 µM,0.0957 µM,0.0335 µM,"cell proliferation, oleate / palmitate supplement (HCT-15): suppress cell proliferation in a fatty acid desaturation-dependent manner; cell proliferation, oleate / palmitate supplement (HT29): suppress cell proliferation in a fatty acid desaturation-dependent manner"
O=c1cc(N2CCN(Cc3cccc(Cl)c3O)CC2)nc[nH]1 [RG5],0.152 µM,0.383 µM,0.277 µM,0.328 µM,–
O=c1cc(N2CCN(Cc3cc(Cl)cc(Br)c3O)CC2)nc[nH]1 [RG3],0.00277 µM,0.00822 µM,0.0426 µM,0.0145 µM,"cell proliferation, oleate / palmitate supplement (HCT-15): suppress cell proliferation in a fatty acid desaturation-dependent manner; cell proliferation, oleate / palmitate supplement (HT29): suppress cell proliferation in a fatty acid desaturation-dependent manner"
O=C1O[C@@H](CO)CN1c1ccc(N2CCC(Oc3ccccc3C(F)(F)F)CC2)nc1 [Compound 67],–,–,–,–,inhibition of human SCD1 (SCD1 [2]): 99%
O=c1cc(N2CCN(Cc3cc(Cl)ccc3O)CC2)nc[nH]1 [RG6],0.0869 µM,0.169 µM,0.33 µM,0.28 µM,–
COc1ccc(-c2nc3ccc(NCc4ccc(Cl)c(C(F)(F)F)c4)cc3n(CCNC(C)=O)c2=O)cc1 [Compound 54],–,–,–,–,stability in HLM [3]: greater than 50%; stability in RLM [4]: greater than 50%; selectivity against Δ5 desaturase (Δ5 desaturase): selective; selectivity against Δ6 desaturase (Δ6 desaturase): selective
